Experimental data taken from ChEMBL document CHEMBL1145610, “N-Acetylhexosaminidase inhibitory properties of C-1 homologated GlcNAc- and GalNAc-thiazolines” (Bioorg Med Chem Lett, 2008).

target: T1, B-N-acetylhexosaminidase (Streptomyces plicatus, UniProt O85361); experiment: Inhibition of Streptomyces plicatus N-acetyl-hexosaminidase
T1 sequence (O85361 whole entry): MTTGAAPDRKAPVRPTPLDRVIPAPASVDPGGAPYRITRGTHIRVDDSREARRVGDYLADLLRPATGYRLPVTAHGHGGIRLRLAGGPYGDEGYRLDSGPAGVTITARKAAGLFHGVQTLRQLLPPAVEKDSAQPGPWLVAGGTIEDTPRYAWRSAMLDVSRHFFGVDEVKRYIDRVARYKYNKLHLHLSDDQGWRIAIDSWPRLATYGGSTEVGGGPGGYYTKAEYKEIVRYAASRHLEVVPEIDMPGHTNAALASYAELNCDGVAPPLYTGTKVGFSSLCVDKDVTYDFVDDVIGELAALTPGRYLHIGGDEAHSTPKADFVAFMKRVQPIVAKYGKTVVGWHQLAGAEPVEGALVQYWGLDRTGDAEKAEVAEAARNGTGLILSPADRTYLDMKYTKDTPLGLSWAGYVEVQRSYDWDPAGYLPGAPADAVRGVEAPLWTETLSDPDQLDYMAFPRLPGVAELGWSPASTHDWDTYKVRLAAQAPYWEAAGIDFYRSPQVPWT

Ki	Compound
> 2000 µM	CC1=N[C@@H]2[C@@H](O)[C@@H](O)[C@@H](CO)O[C@]2(CN)S1
21 µM	CC(=O)NC1NC[C@H](CO)[C@H](O)[C@@H]1O (single isomer, unassigned)
1600 µM	Cc1nc2c(s1)O[C@H](CO)[C@H](O)[C@@H]2O
200 µM	CC1=N[C@@H]2[C@@H](O)[C@H](O)[C@@H](CO)O[C@]2(C)S1
100 µM	CC1=N[C@@H]2[C@@H](O)[C@@H](O)[C@@H](CO)O[C@@H]2S1
20 µM	CC1=N[C@@H]2[C@@H](O)[C@H](O)[C@@H](CO)O[C@@H]2S1
> 2000 µM	CC1=N[C@@H]2[C@@H](O)[C@@H](O)[C@@H](CO)O[C@]2(CNC(=O)OC(C)(C)C)S1
